Measurements reported in US20210137966A1, “VIRUCIDAL COMPOUNDS AND USES THEREOF” (priority 2016, published 2021).

How the values were obtained:
LV-VSV-G = type: cell-based, VSV-G pseudotyped lentivirus
HSV-2 [1] = assay: Evaluation of virucidal activity against HSV-2; type: cell-based; settings: HSV-2, virucidal assay (FIG. 1/2 bottom)
Method: (§1) Evaluation of Virucidal Activity Against HSV-2, HPV-16
(§2) Viral titers were calculated at dilutions at which the nanoparticle was not effective

HPV-16 = assay: Evaluation of virucidal activity against HPV-16; type: cell-based, human papillomavirus (HPV); settings: FIG. 6
Method: as §1, §2

HSV-2 [2] = assay: Inhibition assay HSV-2 (dose response, plaque reduction in Vero cells); type: cell-based; settings: HSV-2, dose response assay (FIG. 1/2 top)
Method: The effect of cyclodextrins (CDs) on HSV infection was evaluated by a plaque reduction assay. Vero cells were pre-plated 24 h in advance in 24-well plates at a density of 10^5 cells. Increasing concentrations of cyclodextrins were incubated with HSV-2 (multiplicity of infection (MOI) 0.0003 plaque forming units (pfu)/cell) at 37° C. for 1 hour and then the mixtures were added to the cells. Following virus adsorption (2 h at 37° C.), the virus inoculum was removed, the cells were washed with medium and then overlaid with a medium containing 1.2% methylcellulose. After 24 h (HSV-2) of incubation at 37° C., cells were fixed and stained with 0.1% of crystal violet in 20% ethanol and viral plaques were counted. The concentration producing 50% reduction in plaque formation (IC50) was determined using the Prism software by comparing drug-treated and untreated wells.

| Compound | Virucidal assay, Dilutions: 1:10 (LV-VSV-G) | Virucidal assay, Dilutions: Stock (LV-VSV-G) | Virucidal effect against Lenti virus (LV-VSV-G) | Virucidal effect against HSV-2 in virucidal assay (HSV-2 [1]) | Virucidal effect against human papillomavirus (HPV) (HPV-16) | Inhibition of HSV-2 in dose response assay (HSV-2 [2]) |
| --- | --- | --- | --- | --- | --- | --- |
| O[C@@H]1[C@@H](O)[C@H]2O[C@H]3[C@H](O)[C@@H](O)[C@@H](O[C@H]4[C@H](O)[C@@H](O)[C@@H](O[C@H]5[C@H](O)[C@@H](O)[C@@H](O[C@H]6[C@H](O)[C@@H](O)[C@@H](O[C@H]7[C@H](O)[C@@H](O)[C@@H](O[C@H]8[C@H](O)[C@@H](O)[C@@H](O[C@@H]1[C@@H](CI)O2)O[C@@H]8CI)O[C@@H]7CI)O[C@@H]6CI)O[C@@H]5CI)O[C@@H]4CI)O[C@@H]3CI [CD1, Heptakis-6-iodo-6-deoxy-beta-cyclodextrin] | 27.38 | 85.49 | – | – | – | – |
| O=S(=O)(O)CCCCCCCCCCCSCC1OC2OC3C(CSCCCCCCCCCCCS(=O)(=O)O)OC(OC4C(CSCCCCCCCCCCCS(=O)(=O)O)OC(OC5C(CSCCCCCCCCCCCS(=O)(=O)O)OC(OC6C(CSCCCCCCCCCCCS(=O)(=O)O)OC(OC7C(CSCCCCCCCCCCCS(=O)(=O)O)OC(OC8C(CSCCCCCCCCCCCS(=O)(=O)O)OC(OC1C(O)C2O)C(O)C8O)C(O)C7O)C(O)C6O)C(O)C5O)C(O)C4O)C(O)C3O (stereo not shown) [CD2] | – | – | virucidal effect | Virucidal effect observed | virucidal effect | – |
| beta-cyclodextrin sulfonate [reference compound] | – | – | – | no virucidal effect is observed | – | Inhibition is observed at high concentrations |
